# Experimental data reported in US9169254B2, “Spiroimidazolone derivative” (Chugai Seiyaku Kabushiki Kaisha, priority 2009, dated 2015).
# Target: T1, human PTH1 receptor (Homo sapiens, UniProt Q03431)
# T1 sequence (Q03431 27-593): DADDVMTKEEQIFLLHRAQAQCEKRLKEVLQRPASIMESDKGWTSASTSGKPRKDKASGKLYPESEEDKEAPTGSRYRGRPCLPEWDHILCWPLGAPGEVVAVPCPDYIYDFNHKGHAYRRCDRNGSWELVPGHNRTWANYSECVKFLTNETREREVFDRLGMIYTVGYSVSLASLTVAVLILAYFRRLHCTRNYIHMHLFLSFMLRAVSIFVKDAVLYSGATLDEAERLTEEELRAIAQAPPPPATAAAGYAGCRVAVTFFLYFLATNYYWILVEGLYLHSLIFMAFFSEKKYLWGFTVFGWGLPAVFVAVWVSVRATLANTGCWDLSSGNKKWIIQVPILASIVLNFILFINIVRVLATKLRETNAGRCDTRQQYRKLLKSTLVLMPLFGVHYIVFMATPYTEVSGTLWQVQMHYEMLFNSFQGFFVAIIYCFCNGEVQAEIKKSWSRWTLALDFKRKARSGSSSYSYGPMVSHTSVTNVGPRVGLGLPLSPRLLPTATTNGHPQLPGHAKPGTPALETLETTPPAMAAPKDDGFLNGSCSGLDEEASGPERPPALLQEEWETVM
# Test: In vitro cAMP signal activity in HKRK-B7 cells (LLC-PK1 cells overexpressing the human PTH1 receptor)
# Format: cell-based
# Conditions: HKRK-B7 cells; compound at 1×10^−3 M; cAMP produced as percentage of that produced by hPTH(1-34) at 100 nM
row,Compound,cAMP production activity (%)
1,"O=C1NC(C2CCCCC2)=NC12CCN(S(=O)(=O)/C=C/c1c(F)cccc1C(F)(F)F)CC2 [Compound 183, 2-cyclohexyl-8-[(E)-2-(2-fluoro-6-trifluoromethyl-phenyl)-ethenesulfonyl]-1,3,8-triaza-spiro[4.5]dec-1-en-4-one]",68
2,"Cc1cc(CNC(=O)OC(C)(C)C)ccc1CCS(=O)(=O)N1CCC2(CC1)N=C(C1CCC(F)(F)CC1)NC2=O [Compound 163, (4-{2-[2-(4,4-difluoro-cyclohexyl)-4-oxo-1,3,8-triaza-spiro[4.5]dec-1-ene-8-sulfonyl]-ethyl}-3-methyl-benzyl)-carbamic acid tert-butyl ester]",41
3,"Cc1cc(C(=O)N2CCC(CCO)CC2)ccc1CCS(=O)(=O)N1CCC2(CC1)N=C(c1cccc(C(F)(F)F)c1)NC2=O [Compound 357, 8-(2-{4-[4-(2-hydroxy-ethyl)-piperidine-1-carbonyl]-2-methyl-phenyl}-ethanesulfonyl)-2-(3-trifluoromethyl-phenyl)-1,3,8-triaza-spiro[4.5]dec-1-en-4-one]",78
4,"Cc1cc(OC[C@H](O)CO)cc(C)c1/C=C/S(=O)(=O)N1CCC2(CC1)N=C(c1cccc(C(F)(F)F)c1F)NC2=O [Compound 243, 8-{(E)-2-[4-((R)-2,3-dihydroxy-propoxy)-2,6-dimethyl-phenyl]-ethenesulfonyl}-2-(2-fluoro-3-trifluoromethyl-phenyl)-1,3,8-triaza-spiro[4.5]dec-1-en-4-one]",80
5,"Cc1cc(C(=O)N2CCC(O)(CF)CC2)cc(C)c1/C=C/S(=O)(=O)N1CCC2(CC1)N=C(c1ccc(F)c(C(F)F)c1)NC2=O [Compound 1256, 2-(3-difluoromethyl-4-fluoro-phenyl)-8-{(E)-2-[4-(4-fluoromethyl-4-hydroxy-piperidine-1-carbonyl)-2,6-dimethyl-phenyl]-ethenesulfonyl}-1,3,8-triaza-spiro[4.5]dec-1-en-4-one]",72
6,"Cc1cc(C(=O)N2CCC(O)(CO)CC2)cc(C)c1/C=C/S(=O)(=O)N1CCC2(CC1)N=C(c1cccc(C(F)(F)F)c1)NC2=O [Compound 386, 8-{(E)-2-[4-(4-hydroxy-4-hydroxymethyl-piperidine-1-carbonyl)-2,6-dimethyl-phenyl]-ethenesulfonyl}-2-(3-trifluoromethyl-phenyl)-1,3,8-triaza-spiro[4.5]dec-1-en-4-one]",86
7,"Cc1cc(N(C)C(N)=O)cc(C)c1CCS(=O)(=O)N1CCC2(CC1)N=C(CCCCCCC(F)(F)F)NC2=O [Compound 1045, 1-(3,5-dimethyl-4-{2-[4-oxo-2-(7,7,7-trifluoro-heptyl)-1,3,8-triaza-spiro[4.5]dec-1-ene-8-sulfonyl]-ethyl}-phenyl)-1-methyl-urea]",106

# Now from value to compound:
row,cAMP production activity (%),Compound
1,60,"CC(=O)Nc1ccc(CCS(=O)(=O)N2CCC3(CC2)N=C([C@H]2CC[C@@H](CC(F)F)CC2)NC3=O)c(C)c1 [Compound 1071, N-[4-(2-{2-[4-(2,2-difluoro-ethyl)-cyclohexyl]-4-oxo-1,3,8-triaza-spiro[4.5]dec-1-ene-8-sulfonyl}-ethyl)-3-methyl-phenyl]-acetamide]"
2,17,"CNCc1cc(C)c(/C=C/S(=O)(=O)N2CCC3(CC2)N=C(C2CCC(C)CC2)NC3=O)c(C)c1 (stereo not shown) [Compound 1289, 8-[(E)-2-(2,6-Dimethyl-4-methylaminomethyl-phenyl)-ethenesulfonyl]-2-(4-methyl-cyclohexyl)-1,3,8-triaza-spiro[4.5]dec-1-en-4-one]"
3,83,"CC(=O)Nc1ccc(/C=C/S(=O)(=O)N2CCC3(CC2)N=C(C2CCC(C)CC2)NC3=O)c(OC(C)C)c1 (stereo not shown) [Compound 506, N-(3-isopropoxy-4-{(E)-2-[2-(4-methyl-cyclohexyl)-4-oxo-1,3,8-triaza-spiro[4.5]dec-1-ene-8-sulfonyl]-vinyl}-phenyl)-acetamide]"
